The text below walks through data of patent publication US9833497B2, “Human originated EGF domain proteins and use of the same” (CHENGDU SOURCEBIO LIMITED-LIABILITY COMPANY, priority 2013, dated 2017).

Type in all cases: cell-based
Experiment [1] deals with Aeromonas hydrophila. As to the kind of experiment: MIC against Gram-negative bacteria: Aeromonas hydrophila. The following applies: for MIC against A. hydrophila: Aeromonas hydrophila. Summed up:
(§1)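 LB broth cultures at McFarland 0.5, spun down, resuspended, diluted to 5×10^5 CFU/mL final. Two-fold serial dilutions of purified human EGF domain proteins, triplicate. 37° C, 175 rpm shaking. Endpoint: no visible growth.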

Experiment [2] relates to Enterobacter cloacae. Put plainly: MIC against Gram-negative bacteria: Enterobacter cloacae. The settings on record: for MIC against E. cloacae: Enterobacter cloacae. The procedure, abridged:
as §1

Experiment [3] deals with Proteus vulgaris. Put plainly: MIC against Gram-negative bacteria: Proteus vulgaris. The settings on record: for MIC against P. vulgaris: Proteus vulgaris. Summed up:
as §1

Experiment [4] relates to Proteus mirabilis. Put plainly: MIC against Gram-negative bacteria: Proteus mirabilis. The settings on record: for MIC against P. mirabilis: Proteus mirabilis. The procedure, abridged:
as §1

Experiment [5] concerns Moraxella catarrhalis. Put plainly: MIC against Gram-negative bacteria: Moraxella catarrhalis. The settings on record: for MIC against M. catarrhalis: Moraxella catarrhalis. Summed up: as §1
Experiment [6] deals with E. coli DH5α. Put plainly: Antibacterial activity: MIC and growth curve against E. coli DH5α in 96-well plate. The settings on record: minimal inhibitory concentration against E. coli DH5α; 96-well plate, 5×10^5 CFU/mL, 37° C., judged after 8 h. The procedure, abridged: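 Log-phase DH5α (OD600 about 0.5, 37° C, 185 rpm in LB) was pelleted, resuspended in fresh LB and seeded at 5×10^5 CFU/mL with recombinant protein at 50, 25 and 12.5 μg/mL (two-fold series), in triplicate. Plates were shaken at 175 rpm, 37° C, and OD600 was read every 30 min. MIC was the lowest concentration with no growth.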

For experiment [7], the system named is Pseudomonas aeruginosa. Put plainly: MIC against Gram-negative bacteria: Pseudomonas aeruginosa. The following applies: for MIC against P. aeruginosa: Pseudomonas aeruginosa. The procedure, abridged: as §1
Experiment [8] has as its system Serratia marcescens. As to the kind of experiment: MIC against Gram-negative bacteria: Serratia marcescens. The following applies: for MIC against S. marcescens: Serratia marcescens. The procedure, abridged:
as §1

The subject of experiment [9] is Klebsiella pneumonia. As to the kind of experiment: MIC against Gram-negative bacteria: Klebsiella pneumonia. The following applies: for MIC against K. pneumonia: Klebsiella pneumonia. Summed up:
as §1

The test system of experiment [10] is Citrobacter diversus. Put plainly: MIC against Gram-negative bacteria: Citrobacter diversus. The following applies: for MIC against C. diversus: Citrobacter diversus. The procedure, abridged:
as §1

The test system of experiment [11] is E. coli BL21. As to the kind of experiment: MIC against Gram-negative bacteria: E. coli BL21. Summed up: as §1
[12] abbreviates: 5×10^5 CFU/mL, 10 h cultivation at 37° C.
Where [13] appears, read: E. coli BL21, 5×10^5 CFU/mL, 10 h cultivation at 37° C.
The mark [14] stands for this setting: 96-well plate, 5×10^5 CFU/mL, 37° C., 10 h.

The term MIC denotes the least concentration at which growth counts as inhibited. Lower therefore signals greater potency. Consider “PRT1412 (RASCPVLCSGNGQYMKGRCLCHSGWKGAECD; listed as Homo sapiens)”, for which the “MIC against A. hydrophila” value in experiment [1] (setting [12]) was found to be 50 µg/mL. The “MIC against E. cloacae” value in [2] (setting [12]) is 25 µg/mL. Further, the “MIC against P. vulgaris” value in experiment [3] (setting [12]) is 50 µg/mL. Besides, the “MIC against P. mirabilis” value in experiment [4] (setting [12]) stood at 25 µg/mL. In [5] (setting [12]), the “MIC against M. catarrhalis” value came out at 12.5 µg/mL. Moreover, in experiment [6], the MIC turned out to be 25 µg/mL. Moreover, the “MIC against P. aeruginosa” value in experiment [7] (setting [12]) was determined as 25 µg/mL. Further, the “MIC against S. marcescens” value in [8] (setting [12]) came out at 25 µg/mL. Moreover, the “MIC against K. pneumonia” value in experiment [9] (setting [12]) came to 12.5 µg/mL. In experiment [10] (setting [12]), the “MIC against C. diversus” value worked out at 25 µg/mL. Further, the “MIC against E. coli BL21” value in experiment [11] (setting [13]) came out at 50 µg/mL.

Take “PRT692 (DVDECATGGRCQHGECANTRGGYTCVCPDGFLLDSSRSSCI; listed as Homo sapiens)”: the “MIC A. hydrophila” value in experiment [1] (setting [14]) turned out to be 12.5 µg/mL. Moreover, the “MIC E. cloacae” value in experiment [2] (setting [14]) was determined as 25 µg/mL. Also, the “MIC P. vulgaris” value in experiment [3] (setting [14]) was determined as 25 µg/mL. Further, the “MIC P. mirabilis” value in experiment [4] (setting [14]) was 12.5 µg/mL. In addition, the “MIC M. catarrhalis” value in [5] (setting [14]) turned out to be 25 µg/mL. In [6], the MIC amounted to 50 µg/mL. For the same substance, the “MIC P. aeruginosa” value in experiment [7] (setting [14]) came out at 12.5 µg/mL. The “MIC S. marcescens” value in experiment [8] (setting [14]) was found to be 50 µg/mL. For the same substance, the “MIC K. pneumonia” value in [9] (setting [14]) was determined as 50 µg/mL. In addition, the “MIC C. diversus” value in experiment [10] (setting [14]) was found to be 50 µg/mL. Also, the “MIC E. coli BL21” value in [11] (setting [14]) turned out to be 25 µg/mL.

As for “PRT800 (GRVCQCQNGASCDHISGKCTCRTGFTGQHCE; listed as Homo sapiens)”, the “MIC (μg/mL) A. hydrophila” value in experiment [1] (A. hydrophila, 10 h cultivation at 37° C., 5×10^5 CFU/mL) came to 12.5 µg/mL. Also, in experiment [2] (E. cloacae, 10 h cultivation at 37° C., 5×10^5 CFU/mL), the “MIC (μg/mL) E. cloacae” value is 50 µg/mL. Further, in [3] (P. vulgaris, 10 h cultivation at 37° C., 5×10^5 CFU/mL), the “MIC (μg/mL) P. vulgaris” value stood at 50 µg/mL. The “MIC (μg/mL) P. mirabilis” value in [4] (P. mirabilis, 10 h cultivation at 37° C., 5×10^5 CFU/mL) was found to be 12.5 µg/mL. Moreover, the “MIC (μg/mL) M. catarrhalis” value in experiment [5] (M. catarrhalis, 10 h cultivation at 37° C., 5×10^5 CFU/mL) amounted to 12.5 µg/mL. Further, the MIC in [6] came to 25 µg/mL. For the same substance, the “MIC (μg/mL) P. aeruginosa” value in experiment [7] (P. aeruginosa, 10 h cultivation at 37° C., 5×10^5 CFU/mL) was 25 µg/mL. Moreover, the “MIC (μg/mL) S. marcescens” value in experiment [8] (S. marcescens, 10 h cultivation at 37° C., 5×10^5 CFU/mL) was 25 µg/mL. Also, the “MIC (μg/mL) K. pneumonia” value in [9] (K. pneumonia, 10 h cultivation at 37° C., 5×10^5 CFU/mL) came to 12.5 µg/mL. Also, the “MIC (μg/mL) C. diversus” value in experiment [10] (C. diversus, 10 h cultivation at 37° C., 5×10^5 CFU/mL) was found to be 50 µg/mL. Also, the “MIC (μg/mL) E. coli BL21” value in [11] (E. coli BL21, 10 h cultivation at 37° C., 5×10^5 CFU/mL) is 50 µg/mL.

For “PRT1421 (ATQSCNDLCEHFCVPNPDQPGSYSCMCETGYRLAADQHRCE; listed as Homo sapiens)”, the “MIC against A. hydrophila” value in experiment [1] (setting [12]) stood at 50 µg/mL. Moreover, in experiment [2] (setting [12]), the “MIC against E. cloacae” value was 12.5 µg/mL. The “MIC against P. vulgaris” value in experiment [3] (setting [12]) amounted to 12.5 µg/mL. In addition, in experiment [4] (setting [12]), the “MIC against P. mirabilis” value worked out at 25 µg/mL. Moreover, in experiment [5] (setting [12]), the “MIC against M. catarrhalis” value was found to be 12.5 µg/mL. The same substance yielded an MIC in experiment [6] of 12.5 µg/mL. Also, the “MIC against P. aeruginosa” value in experiment [7] (setting [12]) is 12.5 µg/mL. In experiment [8] (setting [12]), the “MIC against S. marcescens” value stood at 25 µg/mL. The “MIC against K. pneumonia” value in experiment [9] (setting [12]) turned out to be 50 µg/mL. The “MIC against C. diversus” value in experiment [10] (setting [12]) came to 25 µg/mL. In addition, the “MIC against E. coli BL21” value in experiment [11] (setting [13]) is 50 µg/mL.

As for “PRT989 (NIDDCATAVCFHGATCHDRVASFYCACPMGKTGLLCH; listed as Homo sapiens)”, the MIC is 12.5 µg/mL in experiment [1] (A. hydrophila, 10 h cultivation at 37° C.); 12.5 µg/mL in experiment [2] (E. cloacae, 10 h cultivation at 37° C.); 12.5 µg/mL in experiment [3] (P. vulgaris, 10 h cultivation at 37° C.); 12.5 µg/mL in experiment [4] (P. mirabilis, 10 h cultivation at 37° C.); 100 µg/mL in [5] (M. catarrhalis, 10 h cultivation at 37° C.); 50 µg/mL in [6]. In addition, the MIC in experiment [7] (P. aeruginosa, 10 h cultivation at 37° C.) came out at 50 µg/mL; in [8] (S. marcescens, 10 h cultivation at 37° C.), 25 µg/mL; in [9] (K. pneumonia, 10 h cultivation at 37° C.) it was 12.5 µg/mL; in [10] (C. diversus, 10 h cultivation at 37° C.), 100 µg/mL; in experiment [11] (E. coli BL21, 10 h cultivation at 37° C.) it was 12.5 µg/mL.
